Measurements published in patent US8329710B2, “Metformin folate and preparation of the same” (Sino-Us Pficker Pharmaceuticals Co., priority 2006, dated 2012).
Where a name gives a salt, the structure may show the parent alone.

What was measured:
[1] = test system: diabetic mice induced by streptozotocin; assay: Animal test: blood glucose level in streptozotocin-induced diabetic mice, 10 days; assay type: in vivo; settings: for capacity of lowering blood glucose, folacin-metformin compared with metformin hydrochloride (in words): diabetic mice, 10 days, 350 mg/kg vs 100 mg/kg body weight; for blood glucose level, After use: streptozotocin diabetic mice, day 10, folacin-metformin 350 mg/kg body weight, metformin hydrochloride 100 mg/kg body weight, mean of 6 mice
Experimental: (§1) The female mice were induced to diabetic mice by streptozotocin (body weight […]), 6 animals in one group. The data in the table below represented the average of the values of six mice. Normal healthy mice were used as control group 1, control group 2, and control group 3. Control group 1 was administered folacin-metformin (350 mg/kg body weight), control group 2 was administered metformin hydrochloride (100 mg/kg body weight), and control group 3 was administered normal saline. Diabetic mice were divided into three groups, each group was fed folacin-metformin (350 mg/kg body weight), metformin hydrochloride (100 mg/kg body weight) and normal saline, separately. The test lasted for 10 days, and the blood glucose levels and the homocysteine concentrations were detected for all the mice by the end of the test.
(§2) On day 10 of the test, test mice were anaesthetized by i.p. injection of 65 mg/kg body weight of sodium pentobarbital, then collected blood sample from the abdominal aorta. Blood glucose levels were determined by a standard protocol (Methods of Enzymatic Analysis, Vol. 3, 2nd ed. Verlag Chemie International, 1981, p1196-1201), and the homocysteine concentrations in the blood samples were determined using high performance liquid chromatograph according to the literature (Eur. J. Clin. Chem. Clin. Biochem. 1991, 29, 549-554).

[2] = test system: normal healthy mice; assay: Animal test: homocysteine concentration in blood of normal healthy mice (control groups), 10 days; assay type: in vivo; settings: metformin hydrochloride 100 mg/kg body weight
Experimental: as §1, §2

[3] = test system: diabetic mice induced by streptozotocin; assay: Animal test: homocysteine concentration in blood of streptozotocin-induced diabetic mice, 10 days; assay type: in vivo; settings: metformin hydrochloride 100 mg/kg body weight
Experimental: as §1, §2

[4] = test system: normal healthy mice; assay: Animal test: blood glucose level in normal healthy mice (control groups), 10 days; assay type: in vivo; settings: for blood glucose level, After use: normal healthy mice, day 10, folacin-metformin 350 mg/kg body weight, metformin hydrochloride 100 mg/kg body weight, mean of 6 mice
Experimental: as §1, §2

[5] = after long-term use, recent clinical application; cited from earlier work

CN(C)C(=N)N=C(N)N.Nc1nc2ncc(CNc3ccc(C(=O)N[C@@H](CCC(=O)O)C(=O)O)cc3)nc2c(=O)[nH]1 [folacin-metformin]
capacity of lowering blood glucose, folacin-metformin compared with metformin hydrochloride (in words) [1]: no difference
blood glucose level, After use [1]: 7.4 ± 1.7 mmol/L
effect on the blood homocysteine concentration (in words) ([2]; healthy mice, 10 days, folacin-metformin 350 mg/kg): slight lowering effect
homocystein concentration, After use ([2]; normal healthy mice, day 10, folacin-metformin 350 mg/kg body weight, mean of 6 mice): 9.3 ± 1.1 µmol/L
increase of the homocysteine concentration while lowering the blood glucose (in words) ([3]; diabetic mice, 10 days, folacin-metformin 350 mg/kg): does not increase
homocystein concentration, After use ([3]; streptozotocin diabetic mice, day 10, folacin-metformin 350 mg/kg body weight, mean of 6 mice): 8.9 ± 0.9 µmol/L
effect on the blood glucose level (in words) ([4]; healthy mice, 10 days, 350 mg/kg body weight): no effect
blood glucose level, After use [4]: 7.2 ± 1.2 mmol/L

CN(C)C(=N)N=C(N)N [metformin hydrochloride, reference compound]
homocystein concentration in the patient (in words) [5]: substantially increased
capacity of lowering blood glucose, folacin-metformin compared with metformin hydrochloride (in words) [1]: no difference
blood glucose level, After use [1]: 7.6 ± 1.4 mmol/L
blood glucose level, After use [4]: 7.4 ± 1.7 mmol/L
